{"source": "patent US9695155B2", "about": "“Herbicidal substituted pyrimidinyloxy benzene compounds” (E. I. DU PONT DE NEMOURS AND COMPANY, priority 2013, dated 2017)", "key": {"[1]": {"system": "galium", "test": "Test C preemergence", "assay_type": "in vivo, Galium aparine", "conditions": "for Galium plant response rating: preemergence", "outline": "(§1)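 Injury was assessed visually against controls 13 to 15 days after application, with 0 meaning no effect and 100 full control; missing entries are shown as a dash. Preemergence sprays hit seeded loam–sand soil, postemergence sprays hit 1- to 4-leaf plants.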"}, "[2]": {"system": "chickweed", "test": "Test C postemergence", "assay_type": "in vivo, Stellaria media", "outline": "as §1"}, "[3]": {"system": "barnyardgrass", "test": "Test A postemergence", "assay_type": "in vivo, Echinochloa crus-galli", "conditions": "0 to 100 scale where 0 is no effect and 100 is complete control", "outline": "(§2)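 Pre- and postemergence greenhouse screen. Soil: loam + sand. Spray carrier: solvent mixture, non-phytotoxic, with surfactant. Post timing at 1–2 leaves, height 2–10 cm. Readout: visual injury on a 0–100 scale roughly 10 days after application, untreated plants as reference.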"}, "[4]": {"system": "johnsongrass", "test": "Test C postemergence", "assay_type": "in vivo, Sorghum halepense", "outline": "as §1"}, "[5]": {"system": "barnyardgrass", "test": "Test C preemergence", "assay_type": "in vivo, Echinochloa crus-galli", "conditions": "for Barnyardgrass plant response rating: preemergence", "outline": "as §1"}, "[6]": {"system": "barnyardgrass", "test": "Test B flooded paddy test", "assay_type": "in vivo, Echinochloa crus-galli", "conditions": "Flood, 250 g ai/ha; 0 to 100 scale where 0 is no effect and 100 is complete control", "outline": "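Scores from 0 (no effect) to 100 (complete control) are visual comparisons with controls, taken 13 to 15 days after compound was applied into floodwater 3 cm deep around 2-leaf plants.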"}, "[7]": {"system": "velvetleaf", "test": "Test C postemergence", "assay_type": "in vivo, Abutilon theophrasti", "outline": "as §1"}, "[8]": {"system": "waterhemp", "test": "Test C preemergence", "assay_type": "in vivo, Amaranthus rudis", "conditions": "preemergence", "outline": "as §1"}, "[9]": {"system": "oilseed rape", "test": "Test C preemergence", "assay_type": "in vivo, Brassica napus", "conditions": "preemergence", "outline": "as §1"}, "[10]": {"system": "soybean", "test": "Test C postemergence", "assay_type": "in vivo, Glycine max", "outline": "as §1"}, "[11]": {"system": "morningglory", "test": "Test C preemergence", "assay_type": "in vivo, Ipomoea coccinea", "conditions": "preemergence", "outline": "as §1"}, "[12]": {"system": "giant foxtail", "test": "Test A preemergence", "assay_type": "in vivo, Setaria faberii", "conditions": "0 to 100 scale where 0 is no effect and 100 is complete control", "outline": "as §2"}, "[13]": {"system": "galium", "test": "Test C postemergence", "assay_type": "in vivo, Galium aparine", "outline": "as §1"}, "[14]": {"system": "pigweed", "test": "Test A postemergence", "assay_type": "in vivo, Amaranthus retroflexus", "conditions": "0 to 100 scale where 0 is no effect and 100 is complete control", "outline": "as §2"}, "[15]": {"system": "soybean", "test": "Test C preemergence", "assay_type": "in vivo, Glycine max", "conditions": "preemergence", "outline": "as §1"}, "[16]": {"conditions": "16 g ai/ha, scale 0 to 100 (0 no effect, 100 complete control)"}, "[17]": {"conditions": "62 g ai/ha, scale 0 (no effect) to 100 (complete control)"}, "[18]": {"conditions": "125 g ai/ha, scale 0 (no effect) to 100 (complete control)"}, "[19]": {"conditions": "Preemergence, 31 g ai/ha, scale 0 to 100, 0 no effect, 100 complete control"}, "[20]": {"conditions": "16 g ai/ha, postemergence, 0 is no effect, 100 is complete control"}, "[21]": {"conditions": "31 g ai/ha, postemergence, visual rating, scale 0 to 100 (0 no effect, 100 complete control), 13 to 15 days"}, "[22]": {"conditions": "125 g ai/ha, postemergence, visual rating, scale 0 to 100 (0 no effect, 100 complete control)"}, "[23]": {"conditions": "Postemergence, 62 g ai/ha, scale 0 to 100 (0 no effect, 100 complete control)"}}}
{"smiles": "FC(F)(F)c1cnn(-c2c(Cl)cccc2Oc2ncc(Cl)cn2)c1", "note": "[Compound 167]", "values": [{"measurement": "Galium plant response rating", "setting": "[1]; [16]", "result": 98}, {"measurement": "Galium plant response rating", "setting": "[1]; [17]", "result": 100}, {"measurement": "Galium plant response rating", "setting": "[1]; [18]", "result": 100}, {"measurement": "Plant response rating, Galium", "setting": "[1]; [19]", "result": 100}, {"measurement": "Plant response rating (0 to 100), Chickweed", "setting": "[2]; [20]", "result": 55}, {"measurement": "Chickweed plant response rating", "setting": "[2]; [21]", "result": 80}, {"measurement": "Plant response rating, Chickweed", "setting": "[2]; [22]", "result": 80}, {"measurement": "Plant response rating, Chickweed", "setting": "[2]; [23]", "result": 70}, {"measurement": "Barnyardgrass plant response rating", "setting": "[3]; 125 g ai/ha", "result": 70}, {"measurement": "Plant response rating, Barnyardgrass", "setting": "[3]; 500 g ai/ha", "result": 100}, {"measurement": "Plant response rating (0 to 100), Johnsongrass", "setting": "[4]; [20]", "result": 5}, {"measurement": "Johnsongrass plant response rating", "setting": "[4]; [21]", "result": 15}, {"measurement": "Plant response rating, Johnsongrass", "setting": "[4]; [22]", "result": 25}, {"measurement": "Plant response rating, Johnsongrass", "setting": "[4]; [23]", "result": 15}, {"measurement": "Barnyardgrass plant response rating", "setting": "[5]; [16]", "result": 5}, {"measurement": "Barnyardgrass plant response rating", "setting": "[5]; [17]", "result": 100}, {"measurement": "Barnyardgrass plant response rating", "setting": "[5]; [18]", "result": 100}, {"measurement": "Plant response rating, Barnyardgrass", "setting": "[5]; [19]", "result": 85}, {"measurement": "Plant response rating, Barnyardgrass", "setting": "[6]", "result": 35}, {"measurement": "Plant response rating (0 to 100), Velvetleaf", "setting": "[7]; [20]", "result": 35}, {"measurement": "Velvetleaf plant response rating", "setting": "[7]; [21]", "result": 40}, {"measurement": "Plant response rating, Velvetleaf", "setting": "[7]; [22]", "result": 70}, {"measurement": "Plant response rating, Velvetleaf", "setting": "[7]; [23]", "result": 40}, {"measurement": "Waterhemp plant response rating", "setting": "[8]; [16]", "result": 100}, {"measurement": "Waterhemp plant response rating", "setting": "[8]; [17]", "result": 100}, {"measurement": "Waterhemp plant response rating", "setting": "[8]; [18]", "result": 100}, {"measurement": "Oilseed Rape plant response rating", "setting": "[9]; [16]", "result": 80}, {"measurement": "Oilseed Rape plant response rating", "setting": "[9]; [17]", "result": 90}, {"measurement": "Oilseed Rape plant response rating", "setting": "[9]; [18]", "result": 98}, {"measurement": "Plant response rating (0 to 100), Soybean", "setting": "[10]; [20]", "result": 20}, {"measurement": "Soybean plant response rating", "setting": "[10]; [21]", "result": 30}, {"measurement": "Plant response rating, Soybean", "setting": "[10]; [22]", "result": 60}, {"measurement": "Plant response rating, Soybean", "setting": "[10]; [23]", "result": 60}, {"measurement": "Morningglory plant response rating", "setting": "[11]; [16]", "result": 30}, {"measurement": "Morningglory plant response rating", "setting": "[11]; [17]", "result": 50}, {"measurement": "Morningglory plant response rating", "setting": "[11]; [18]", "result": 100}, {"measurement": "Plant response rating, Foxtail, Giant", "setting": "[12]; 125 g ai/ha", "result": 100}, {"measurement": "Foxtail, Giant plant response rating", "setting": "[12]; 500 g ai/ha", "result": 100}, {"measurement": "Plant response rating (0 to 100), Galium", "setting": "[13]; [20]", "result": 70}, {"measurement": "Galium plant response rating", "setting": "[13]; [21]", "result": 70}, {"measurement": "Plant response rating, Galium", "setting": "[13]; [22]", "result": 90}, {"measurement": "Plant response rating, Galium", "setting": "[13]; [23]", "result": 70}, {"measurement": "Pigweed plant response rating", "setting": "[14]; 125 g ai/ha", "result": 100}, {"measurement": "Plant response rating, Pigweed", "setting": "[14]; 500 g ai/ha", "result": 100}, {"measurement": "Soybean plant response rating", "setting": "[15]; [16]", "result": 10}, {"measurement": "Soybean plant response rating", "setting": "[15]; [17]", "result": 90}, {"measurement": "Soybean plant response rating", "setting": "[15]; [18]", "result": 90}]}
